From US12091425B2 (AMGEN INC., priority 2016, dated 2024)

Experiments:
[1] = test system: OPM-2 human multiple myeloma cell line; assay: Cell Viability Assay (OPM-2 10 FBS); type: cell-based; conditions: OPM-2 cells, CellTiter-Glo
How it was run: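 IC50 from 4-parameter logistic fit of CellTiter-Glo luminescence. 3000 cells/well, 10% FBS medium, serial compound dilutions, 16 h, 37 °C/5% CO2; read 25 min post-reagent.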

[2] = molecular target: T1, Mcl-1/Bim interaction, recombinant human Mcl-1 (171-327) (Homo sapiens, UniProt Q07820); assay: Cell free Mcl-1: Bim Affinity Assay (Mcl-1 HTRF); type: binding
T1 construct: made in house
T1 sequence (Q07820 171-327): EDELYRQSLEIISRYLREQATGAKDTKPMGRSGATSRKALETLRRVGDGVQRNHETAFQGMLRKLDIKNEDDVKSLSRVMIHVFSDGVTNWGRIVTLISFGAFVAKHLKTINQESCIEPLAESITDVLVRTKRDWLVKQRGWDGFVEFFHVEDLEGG
How it was run: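 TR-FRET competition assay with biotinylated human Bim peptide (residues 51-76); reaction plates incubated overnight before reading. IC50 values came from duplicate data fitted to a four-parameter sigmoidal competition curve.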

[3] = Homo sapiens, OPM-2, 16 h, 16 h
[4] = cell free Mcl-1:Bim TR-FRET, recombinant human Mcl-1 (171-327)
[5] = Homo sapiens, OPM-2, 16 h, 16 h incubation
[6] = TR-FRET, 0.1 nM Mcl-1 (171-327), 0.05 nM biotin-Bim (51-76)

| Compound | IC50 [1, 3] [µM] | IC50 [1, 5] [µM] | IC50 [2, 6] [µM] | IC50 [2, 4] [µM] | IC50 ([1]; 16 h) [µM] |
| --- | --- | --- | --- | --- | --- |
| C[C@@H]1[C@@H](C)C/C=C/[C@H](OCCN2CCC2=O)[C@@H]2CC[C@H]2CN2C[C@@]3(CCCc4cc(Cl)ccc43)COc3ccc(cc32)C(=O)NS1(=O)=O [Example 731, (1S,3′R,6′R,7′S,8′E,11′S,12′R)-6-chloro-11′,12′-dimethyl-7′-(2-(2-oxo-1-azetedinyl)ethoxy)-3,4-dihydro-2H,15′H-spiro[naphthalene-1,22′-[20]oxa[13]thia[1,14]diazatetracyclo[14.7.2.0^3,6.0^19,24]pentacosa [8,16,18,24]tetraen]-15′-one-13′, 13′-dioxide] | 0.117 |  |  | 0.000302 |  |
| COCC(O)CC1CCC=CC(OC)C2CCC2CN2CC3(CCCc4cc(Cl)ccc43)COc3ccc(cc32)C(=O)NS1(=O)=O (single isomer, unassigned) [Example 658] | 0.259 |  |  | 0.000285 |  |
| COCC[C@@H]1C[C@H](C)/C=C/[C@H](O)[C@@H]2CC[C@H]2CN2C[C@@]3(CCCc4cc(Cl)ccc43)COc3ccc(cc32)C(=O)NS1(=O)=O (single isomer, unassigned) [Example 478] |  |  |  | 0.000197 | 0.469 |
| CN(C)C(=O)C[C@@H]1CC/C=C/[C@H](O)[C@@H]2CC[C@H]2CN2C[C@@]3(CCCc4cc(Cl)ccc43)COc3ccc(cc32)C(=O)NS1(=O)=O (single isomer, unassigned) [Example 621] |  |  |  | 0.000225 | 3.67 |
| COC(=O)C[C@H]1CC/C=C/[C@H](O)[C@@H]2CC[C@H]2CN2C[C@@]3(CCCc4cc(Cl)ccc43)COc3ccc(cc32)C(=O)NS1(=O)=O [Example 620] |  |  |  | 0.00071 | 4.08 |
| C[C@@H](O)C[C@@H]1CC/C=C/[C@H](O)[C@@H]2CC[C@H]2CN2C[C@@]3(CCCc4cc(Cl)ccc43)COc3ccc(cc32)C(=O)NS1(=O)=O (single isomer, unassigned) [Example 544] |  |  |  | 0.000193 | 1.52 |
| O=C1NS(=O)(=O)[C@H](CC2CCOCC2)CC/C=C/[C@H](O)[C@@H]2CC[C@H]2CN2C[C@@]3(CCCc4cc(Cl)ccc43)COc3ccc1cc32 (single isomer, unassigned) [Example 187] |  |  | 0.000248 |  | 0.426 |
| C[C@H]1/C=C/[C@H](O)[C@@H]2CC[C@H]2CN2C[C@@]3(CCCc4cc(Cl)ccc43)COc3ccc(cc32)C(=O)NS(=O)(=O)CC1 (single isomer, unassigned) [Example 491] |  |  |  | 0.000774 | 3.48 |

More lines, main results first:

| IC50 [1, 3] [µM] | IC50 [1, 5] [µM] | IC50 [2, 6] [µM] | Compound | IC50 [2, 4] [µM] | IC50 ([1]; 16 h) [µM] |
| --- | --- | --- | --- | --- | --- |
|  | 0.475 | 0.000498 | CO[C@H]1/C=C/[C@@H](C)C[C@@H](C)S(=O)(=O)NC(=O)c2ccc3c(c2)N(C[C@@H]2CC[C@H]21)C[C@@]1(CCCc2cc(Cl)ccc21)CO3 [Example 1019, (1S,3′R,6′R,7′S,8′E,10′S,12′R)-6-chloro-7′-methoxy-10′,12′-dimethyl-3,4-dihydro-2H,15′H-spiro[naphthalene-1,22′-[20]oxa[13]thia[1,14]diazatetracyclo[14.7.2.0^3,6.0^19,24]pentacosa [8,16,18,24]tetraen]-15′-one 13′,13′-dioxide] |  |  |
|  | 0.235 | 0.000275 | C[C@@H]1/C=C/[C@H](O)[C@@H]2CC[C@H]2CN2C[C@@]3(CCCc4cc(Cl)ccc43)COc3ccc(cc32)C(=O)NS(=O)(=O)[C@H](C)C1 [Example 1015, (1S,3′R,6′R,7′S,8′E,10′S,12′R)-6-chloro-7′-hydroxy-10′,12′-dimethyl-3,4-dihydro-2H,15′H-spiro[naphthalene-1,22′-[20]oxa[13]thia[1,14]diazatetracyclo[14.7.2.0^3,6.0^19,24]pentacosa [8,16,18,24]tetraen]-15′-one 13′,13′-dioxide] |  |  |
| 25 |  | 0.0038 | CC1C=CC(O)C2CCC2CN2CC3(CCCc4cc(Cl)ccc43)COc3ccc(cc32)C(=O)NS(=O)(=O)C1 (single isomer, unassigned) [Example 165] |  |  |
